Legend:
[1] = target: T1, thioredoxin reductase/thioredoxin (Homo sapiens, UniProt Q16881); settings: cited from earlier work
T1 sequence (Q16881 1-499 isoform Q16881-5): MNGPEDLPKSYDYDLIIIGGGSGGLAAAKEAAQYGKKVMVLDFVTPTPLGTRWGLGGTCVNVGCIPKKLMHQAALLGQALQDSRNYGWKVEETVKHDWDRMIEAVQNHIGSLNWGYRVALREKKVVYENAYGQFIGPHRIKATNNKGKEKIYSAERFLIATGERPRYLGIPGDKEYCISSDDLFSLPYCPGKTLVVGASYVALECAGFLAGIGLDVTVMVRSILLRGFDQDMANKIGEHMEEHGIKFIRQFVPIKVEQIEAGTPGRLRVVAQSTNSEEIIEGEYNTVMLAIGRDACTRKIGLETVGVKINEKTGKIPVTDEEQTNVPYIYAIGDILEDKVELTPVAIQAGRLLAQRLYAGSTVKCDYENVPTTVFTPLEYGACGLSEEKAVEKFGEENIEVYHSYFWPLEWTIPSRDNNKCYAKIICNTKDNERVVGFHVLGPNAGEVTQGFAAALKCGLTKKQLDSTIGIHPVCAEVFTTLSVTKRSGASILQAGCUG

thioredoxin reductase = target: T2, thioredoxin reductase (Homo sapiens, UniProt Q16881); settings: cited from earlier work
T2 sequence (Q16881 1-499 isoform Q16881-5): T1 sequence (Q16881 1-499 isoform Q16881-5)

[2] = tested on: colon tumors of min mouse; settings: in the diet at 250 ppm, cited from earlier work
[3] = tested on: human MCF-7 breast cancer; settings: MCF-7 tumor system, scid mice; cited from earlier work
HL-60 leukemia = settings: scid mice; a number of the animals without tumor at day 45; cited from earlier work
alpha/beta II = target: T3, alpha/beta II (Bos taurus, UniProt Q6B856); settings: cited from earlier work
T3 construct: from tissue; host or cells: bovine cerebra

alpha/beta IV = settings: cited from earlier work
alpha/beta III = target: T4, alpha/beta III (Bos taurus, UniProt Q2T9S0); settings: cited from earlier work
T4 construct: from tissue; host or cells: bovine brain (cerebra)

alpha/beta III dimer = alpha/beta III dimer (Bos taurus, UniProt Q2T9S0); settings: compared with alpha/beta II and alpha/beta IV dimers; cited from earlier work
[4] = tested on: BT-549 breast cancer cell line; assay: drug resistance of breast cancer cell line; type: cell-based; settings: BT-549 compared with MCF-7
[5] = 2.5 mg/kg, mice; cited from earlier work
[6] = target: T5, thioredoxin reductase and thioredoxin (Homo sapiens, UniProt P10599+Q16881); settings: cited from earlier work
T5 sequence (Q16881 151-649 limits assumed): T1 sequence (Q16881 1-499 isoform Q16881-5)
T5 sequence (P10599 1-105): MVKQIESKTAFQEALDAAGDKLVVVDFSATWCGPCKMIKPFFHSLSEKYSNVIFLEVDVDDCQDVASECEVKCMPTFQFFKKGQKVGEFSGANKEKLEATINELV

brain tubulin = tested on: brain tubulin; design: dose or concentration left out as unconfirmed; settings: cited from earlier work
erythrocyte tubulin = target: T6, erythrocyte tubulin (Gallus gallus, UniProt P09207); design: dose or concentration left out as unconfirmed; settings: cited from earlier work
T6 construct: from tissue; host or cells: chicken erythrocytes
T6 sequence (P09207 whole entry): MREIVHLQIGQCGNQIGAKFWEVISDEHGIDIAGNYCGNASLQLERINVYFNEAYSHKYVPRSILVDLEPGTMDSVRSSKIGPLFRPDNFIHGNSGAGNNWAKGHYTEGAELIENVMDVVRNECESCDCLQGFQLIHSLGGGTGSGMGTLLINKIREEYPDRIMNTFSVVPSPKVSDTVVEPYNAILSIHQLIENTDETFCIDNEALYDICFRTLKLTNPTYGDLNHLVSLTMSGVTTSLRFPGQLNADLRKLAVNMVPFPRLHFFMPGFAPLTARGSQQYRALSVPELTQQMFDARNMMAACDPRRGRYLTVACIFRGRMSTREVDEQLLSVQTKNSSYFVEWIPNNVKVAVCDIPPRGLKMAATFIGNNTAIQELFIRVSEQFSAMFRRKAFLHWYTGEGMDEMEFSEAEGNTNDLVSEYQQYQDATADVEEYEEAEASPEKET

T3 sequence (Q6B856 whole entry): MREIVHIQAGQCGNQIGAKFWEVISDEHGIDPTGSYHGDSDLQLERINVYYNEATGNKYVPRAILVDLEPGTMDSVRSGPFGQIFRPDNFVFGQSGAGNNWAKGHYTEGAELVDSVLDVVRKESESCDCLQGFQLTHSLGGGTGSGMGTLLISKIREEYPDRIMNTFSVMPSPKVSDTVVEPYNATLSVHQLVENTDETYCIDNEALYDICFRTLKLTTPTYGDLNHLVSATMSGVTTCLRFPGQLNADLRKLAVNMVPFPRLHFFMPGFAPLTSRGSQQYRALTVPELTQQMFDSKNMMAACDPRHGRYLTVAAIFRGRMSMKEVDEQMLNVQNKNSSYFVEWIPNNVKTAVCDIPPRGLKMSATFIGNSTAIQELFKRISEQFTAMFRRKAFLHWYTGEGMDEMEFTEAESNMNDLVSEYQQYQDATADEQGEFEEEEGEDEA
T3 sequence (P81947 whole entry partner): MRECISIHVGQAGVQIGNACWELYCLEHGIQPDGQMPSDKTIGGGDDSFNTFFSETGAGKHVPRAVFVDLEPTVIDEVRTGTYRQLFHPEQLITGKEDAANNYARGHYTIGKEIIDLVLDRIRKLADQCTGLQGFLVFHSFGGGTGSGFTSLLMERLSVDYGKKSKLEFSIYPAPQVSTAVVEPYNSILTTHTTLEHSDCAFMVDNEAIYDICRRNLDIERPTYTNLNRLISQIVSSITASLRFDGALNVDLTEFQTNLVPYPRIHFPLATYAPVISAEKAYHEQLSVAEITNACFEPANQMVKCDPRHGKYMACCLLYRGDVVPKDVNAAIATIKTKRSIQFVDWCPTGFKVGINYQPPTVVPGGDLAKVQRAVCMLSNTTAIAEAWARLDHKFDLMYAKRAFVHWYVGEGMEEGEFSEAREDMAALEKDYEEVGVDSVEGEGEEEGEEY
alpha/beta III dimer, sequence (Q2T9S0 whole entry): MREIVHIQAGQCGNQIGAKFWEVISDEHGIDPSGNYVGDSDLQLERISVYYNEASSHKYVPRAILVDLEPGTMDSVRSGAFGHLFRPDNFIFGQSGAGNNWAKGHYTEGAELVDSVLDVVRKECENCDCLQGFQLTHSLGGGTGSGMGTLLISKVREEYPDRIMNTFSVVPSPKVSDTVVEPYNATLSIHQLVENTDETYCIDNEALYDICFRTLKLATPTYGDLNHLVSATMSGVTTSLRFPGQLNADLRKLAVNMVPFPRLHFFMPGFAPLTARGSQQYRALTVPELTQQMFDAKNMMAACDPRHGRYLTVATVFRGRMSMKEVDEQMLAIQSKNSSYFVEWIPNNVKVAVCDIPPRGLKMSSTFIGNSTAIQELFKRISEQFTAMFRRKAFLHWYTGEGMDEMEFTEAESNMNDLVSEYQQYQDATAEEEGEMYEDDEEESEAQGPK
alpha/beta III dimer, sequence (P81947 whole entry partner, looked up): as the sequence (P81947 whole entry partner) above
T4 sequence (Q2T9S0 whole entry): as the sequence (Q2T9S0 whole entry) above
T4 sequence (P81947 whole entry partner): as the sequence (P81947 whole entry partner) above

In the case of CCCCCCCC(=O)OC1C2C(CC1(C)C)C(=O)C13OC1C(=O)C1(CO1)C23C (centres unmarked) [NSC 163027], the “activity in the thioredoxin reductase/thioredoxin-dependent insulin assay” value [1] is given as “active” and the “inhibition of thioredoxin reductase alone” value (thioredoxin reductase) is given as “did not inhibit thioredoxin reductase alone”.

For CCC(C)SSc1ncc[nH]1 (centres unmarked) [IV-2, 1-methylpropyl 2-imidazolyl disulfide], the “size of remaining tumors” value ([2]; p<0.001 compared to control) is listed as “significant reduction”, the “reduction of the number of tumors in the colon” value ([2]; p=0.0160) is listed as 70% and the tumor inhibition [3] is listed as 98%. The “antitumor activity against HL-60 leukemia” value (HL-60 leukemia) was “showed antitumor activity”.

For c1ccc(CSSc2ncc[nH]2)cc1 [DLK-36, benzyl-2-imidazolyl disulfide], the tumor inhibition [3] is given as 65% and the “antitumor activity against HL-60 leukemia” value (HL-60 leukemia) is given as “showed antitumor activity”.

In the case of COc1cc(OC)c(Cl)c(-n2c(-c3ccccc3)cc(=O)c(C)c2-c2ccc(F)cc2)c1 [IKP-104], the “apparent dissociation constant for the high-affinity site (Kd1)” value (from here on “apparent dissociation constant”) (alpha/beta II) is given as “lower than that of unfractionated tubulin”, the “apparent dissociation constant” value (alpha/beta IV) is given as “greater than those of unfractionated tubulin, alpha/beta II, or alpha/beta III” and the “apparent dissociation constant” value (alpha/beta III) is given as “lower than that of unfractionated tubulin”.

In the case of O=[N+]([O-])C(=C(Sc1ccccc1)Sc1ccccc1)C(Cl)=C(Cl)Cl [NSC 665103], the “activity in the thioredoxin reductase/thioredoxin-dependent insulin assay” value [1] is listed as “active” and the “inhibition of thioredoxin reductase alone” value (thioredoxin reductase) is listed as “did not inhibit thioredoxin reductase alone”.

For Cc1cccc2c1c1ccc3c(c1n2C)C(=O)C=CC3=O [NSC 645330], the “activity in the thioredoxin reductase/thioredoxin-dependent insulin assay” value [1] is given as “active” and the “inhibition of thioredoxin reductase alone” value (thioredoxin reductase) is given as “did not inhibit thioredoxin reductase alone”.

In the case of CC(=O)O[C@H]1C(=O)[C@@]2(C)[C@H]([C@H](OC(=O)c3ccccc3)[C@]3(O)C[C@H](OC(=O)[C@H](O)[C@@H](NC(=O)c4ccccc4)c4ccccc4)C(C)=C1C3(C)C)[C@]1(OC(C)=O)CO[C@@H]1C[C@@H]2O [paclitaxel], the “interaction of alpha/beta III dimer with ligand” value (alpha/beta III dimer) is given as “much less strongly” and the “resistance of cell line to drug” value [4] is given as “resistant”.

For CC1=C(CO)C2=C(C)C3(CC3)[C@@](C)(O)C(=O)C2=C1 [irofulven], the tolerability [5] is listed as “tolerable” and the “inhibition of thioredoxin reductase and thioredoxin” value [6] is listed as “selectively inhibit both thioredoxin reductase and thioredoxin”.

In the case of CC[C@]1(O)C[C@@H]2CN(CCc3c([nH]c4ccccc34)[C@@](C(=O)OC)(c3cc4c(cc3OC)N(C)[C@H]3[C@@](O)(C(=O)OC)[C@H](OC(C)=O)[C@]5(CC)C=CCN6CC[C@]43[C@@H]65)C2)C1 [vinblastine], the “brain tubulin aggregated into spirals” value (brain tubulin) is listed as “About 42%”, the “erythrocyte tubulin formed spirals” value (erythrocyte tubulin) is listed as 74% and the “resistance of cell line to drug” value [4] is listed as “resistant”.

With cryptophycin the “resistance of cell line to drug” value [4] was “resistant”.
